According to US20140051575A1 (priority 2011, published 2014):

Key:
[1] = Measurement of logP values by HPLC on reversed phase columns (EEC directive 79/831 Annex V.A8); format: physicochemical; settings: pH 2.7, 0.1% formic acid in water / acetonitrile gradient, calibration with alkan-2-ones
Protocol: Measurement of logP values was performed according EEC directive 79/831 Annex V.A8 by HPLC (High Performance Liquid Chromatography) on reversed phase columns with the following methods:
Measurement of LC-MS was done at pH 2.7 with 0.1% formic acid in water and with acetonitrile (contains 0.1% formic acid) as eluent with a linear gradient from 10% acetonitrile to 95% acetonitrile.
Calibration was done with not branched alkan2-ones (with 3 to 16 carbon atoms) with known logP-values (measurement of logP values using retention times with linear interpolation between successive alkanones). lambda-maX-values were determined using UV-spectra from 200 nm to 400 nm and the peak values of the chromatographic signals.

Phytophthora infestans = format: in vivo; settings: tomato plants, preventive spray, 500 ppm of active ingredient, evaluated 7 days after inoculation; 0% = untreated control, 100% = no disease

Compound: Cn1nnnc1C(=NOCc1cccc(NC(=O)COCC2CC2)n1)c1ccccc1 [Example 1]
- Log P [1]: 3.29

Compound: CC(OCC1CC1)C(=O)Nc1ccc(Br)c(CON=C(c2ccccc2)c2nnnn2C)n1 (stereo not shown) [Example 3]
- Eff. % (Phytophthora infestans): 100%
- Log P [1]: 4.23

Compound: Cn1nnnc1C(=NOCc1cccc(NC(=O)COCC2CCCC2)n1)c1ccccc1 [Example 5]
- Eff. % (Phytophthora infestans): 97%
- Log P [1]: 4.24

Compound: Cn1nnnc1C(=NOCc1cccc(NC(=O)COCC2CCCCC2)n1)c1ccccc1 [Example 6]
- Eff. % (Phytophthora infestans): 95%
- Log P [1]: 4.63

Compound: CC(OCC1CCCCC1)C(=O)Nc1cccc(CON=C(c2ccccc2)c2nnnn2C)n1 (stereo not shown) [Example 7]
- Eff. % (Phytophthora infestans): 100%
- Log P [1]: 5.03

Compound: CC(OCC1CCCC1)C(=O)Nc1cccc(CON=C(c2ccccc2)c2nnnn2C)n1 (stereo not shown) [Example 8]
- Eff. % (Phytophthora infestans): 100%
- Log P [1]: 4.59

Compound: Cn1nnnc1C(=NOCc1cccc(NC(=O)COCCC2CCCCC2)n1)c1ccccc1 [Example 10]
- Eff. % (Phytophthora infestans): 95%
- Log P [1]: 4.98

Compound: Cn1nnnc1C(=NOCc1cccc(NC(=O)COCCC2CCCC2)n1)c1ccccc1 [Example 11]
- Eff. % (Phytophthora infestans): 95%
- Log P [1]: 4.61

Compound: CC(OCC1CCCCC1)C(=O)Nc1nc(CON=C(c2ccccc2)c2nnnn2C)cs1 (stereo not shown) [Example 18]
- Eff. % (Phytophthora infestans): 100%
- Log P [1]: 4.64

Compound: Cn1nnnc1C(=NOCc1csc(NC(=O)COCCC2CCCCC2)n1)c1ccccc1 [Example 20]
- Eff. % (Phytophthora infestans): 100%
- Log P [1]: 4.63

Compound: Cn1nnnc1C(=NOCc1csc(NC(=O)COCCC2CCCC2)n1)c1ccccc1 [Example 21]
- Eff. % (Phytophthora infestans): 95%
- Log P [1]: 4.29

Compound: Cc1nnnn1C(=NOCc1cccc(NC(=O)COCC2CC2)n1)c1ccccc1 [Example 23]
- Eff. % (Phytophthora infestans): 95%
- Log P [1]: 3.33

Compound: Cc1nnnn1C(=NOCc1cccc(NC(=O)COCC2CCCC2)n1)c1ccccc1 [Example 26]
- Eff. % (Phytophthora infestans): 97%
- Log P [1]: 4.34

Compound: Cc1nnnn1C(=NOCc1cccc(NC(=O)COCC2CCCCC2)n1)c1ccccc1 [Example 27]
- Eff. % (Phytophthora infestans): 95%
- Log P [1]: 4.76

Compound: Cc1nnnn1C(=NOCc1cccc(NC(=O)C(C)OCC2CCCCC2)n1)c1ccccc1 (stereo not shown) [Example 28]
- Eff. % (Phytophthora infestans): 100%
- Log P [1]: 5.13

Compound: Cc1nnnn1C(=NOCc1cccc(NC(=O)C(C)OCC2CCCC2)n1)c1ccccc1 (stereo not shown) [Example 29]
- Eff. % (Phytophthora infestans): 100%
- Log P [1]: 4.69

Compound: Cc1nnnn1C(=NOCc1cccc(NC(=O)COCCC2CCCCC2)n1)c1ccccc1 [Example 30]
- Eff. % (Phytophthora infestans): 95%
- Log P [1]: 5.08

Compound: Cc1nnnn1C(=NOCc1cccc(NC(=O)COCCC2CCCC2)n1)c1ccccc1 [Example 31]
- Eff. % (Phytophthora infestans): 97%
- Log P [1]: 4.73

Compound: Cc1nnnn1C(=NOCc1cccc(NC(=O)C(C)OCC2CCC2)n1)c1ccccc1 (stereo not shown) [Example 32]
- Eff. % (Phytophthora infestans): 100%
- Log P [1]: 4.26

Compound: Cc1nnnn1C(=NOCc1csc(NC(=O)COCC2CCCC2)n1)c1ccccc1 [Example 36]
- Eff. % (Phytophthora infestans): 97%
- Log P [1]: 3.94

Compound: Cc1nnnn1C(=NOCc1csc(NC(=O)COCC2CCCCC2)n1)c1ccccc1 [Example 37]
- Eff. % (Phytophthora infestans): 100%
- Log P [1]: 4.36

Compound: Cc1nnnn1C(=NOCc1csc(NC(=O)C(C)OCC2CCCCC2)n1)c1ccccc1 (stereo not shown) [Example 38]
- Eff. % (Phytophthora infestans): 100%
- Log P [1]: 4.74

Compound: Cc1nnnn1C(=NOCc1csc(NC(=O)C(C)OCC2CCCC2)n1)c1ccccc1 (stereo not shown) [Example 39]
- Eff. % (Phytophthora infestans): 100%
- Log P [1]: 4.31

Compound: Cc1nnnn1C(=NOCc1csc(NC(=O)COCCC2CCCCC2)n1)c1ccccc1 [Example 40]
- Eff. % (Phytophthora infestans): 95%
- Log P [1]: 4.71

Compound: Cc1nnnn1C(=NOCc1csc(NC(=O)COCCC2CCCC2)n1)c1ccccc1 [Example 41]
- Eff. % (Phytophthora infestans): 98%
- Log P [1]: 4.34

Compound: CC(C)CCOCC(=O)Nc1cccc(CON=C(c2ccccc2)c2nnnn2C)n1 [Example 43]
- Log P [1]: 4.09

Compound: CC(C)CCOC(C)C(=O)Nc1cccc(CON=C(c2ccccc2)c2nnnn2C)n1 (stereo not shown) [Example 44]
- Eff. % (Phytophthora infestans): 100%
- Log P [1]: 4.41

Compound: Cc1nnnn1C(=NOCc1csc(NC(=O)COCCC(C)C)n1)c1ccccc1 [Example 46]
- Eff. % (Phytophthora infestans): 100%
- Log P [1]: 3.87

Compound: CC(OCc1ccccc1)C(=O)Nc1cccc(CON=C(c2ccccc2)c2nnnn2C)n1 (stereo not shown) [Example 47]
- Log P [1]: 3.92

Compound: Cc1nnnn1C(=NOCc1cccc(NC(=O)C(C)OCc2ccccc2)n1)c1ccccc1 (stereo not shown) [Example 51]
- Eff. % (Phytophthora infestans): 95%
- Log P [1]: 4.11

Compound: Cn1nnnc1C(=NOCc1cccc(NC(=O)COCC2CCCCO2)n1)c1ccccc1 (stereo not shown) [Example 53]
- Log P [1]: 3.33

Compound: CC(OCC1CCCCO1)C(=O)Nc1cccc(CON=C(c2ccccc2)c2nnnn2C)n1 (stereo not shown) [Example 55]
- Eff. % (Phytophthora infestans): 100%
- Log P [1]: 3.67

Compound: Cn1nnnc1C(=NOCc1csc(NC(=O)COCC2CCCCO2)n1)c1ccccc1 (stereo not shown) [Example 57]
- Eff. % (Phytophthora infestans): 95%
- Log P [1]: 3.25

Compound: CC(OCC1CCCCO1)C(=O)Nc1nc(CON=C(c2ccccc2)c2nnnn2C)cs1 (stereo not shown) [Example 59]
- Eff. % (Phytophthora infestans): 100%
- Log P [1]: 3.62

Compound: Cc1nnnn1C(=NOCc1cccc(NC(=O)COCC2CCCO2)n1)c1ccccc1 (stereo not shown) [Example 61]
- Log P [1]: 2.98

Compound: Cc1nnnn1C(=NOCc1csc(NC(=O)C(C)OCC2CCCCO2)n1)c1ccccc1 (stereo not shown) [Example 62]
- Eff. % (Phytophthora infestans): 98%
- Log P [1]: 3.69

Compound: Cn1nnnc1C(=NOCc1cccc(NC(=O)CSCc2ccccc2)n1)c1ccccc1 [Example 64]
- Log P [1]: 3.78

Compound: C=CCSC(C)C(=O)Nc1cccc(CON=C(c2ccccc2)c2nnnn2C)n1 (stereo not shown) [Example 66]
- Eff. % (Phytophthora infestans): 95%

Compound: Cn1nnnc1C(=NOCc1cccc(NC(=O)OCC(C)(C)OCc2ccccc2)n1)c1ccccc1 [Example 68]
- Eff. % (Phytophthora infestans): 100%
- Log P [1]: 4.34

Compound: Cn1nnnc1C(=NOCc1csc(NC(=O)CSCc2cccs2)n1)c1ccccc1 [Example 69]
- Eff. % (Phytophthora infestans): 95%
- Log P [1]: 3.46

Compound: C=CCSCC(=O)Nc1nc(CON=C(c2ccccc2)c2nnnn2C)cs1 [Example 72]
- Eff. % (Phytophthora infestans): 100%
- Log P [1]: 3.11

Compound: CC(SC1CCCC1)C(=O)Nc1nc(CON=C(c2ccccc2)c2nnnn2C)cs1 (stereo not shown) [Example 73]
- Eff. % (Phytophthora infestans): 95%
- Log P [1]: 3.99

Compound: C=CCSC(C)C(=O)Nc1nc(CON=C(c2ccccc2)c2nnnn2C)cs1 (stereo not shown) [Example 75]
- Eff. % (Phytophthora infestans): 93%
- Log P [1]: 3.31
